Measured values published in US20190358348A1, “CHARACTERIZATION OF BIOLOGICAL TISSUES AT A CELLULAR LEVEL USING RED AND FAR-RED FLUORESCENT DYES” (IGR-Institut Gustave Roussy, priority 2012, published 2019).
Like-named read-outs stand apart in the source and are kept apart here.

Experiments:
[1] = system: popliteal and/or inguinal lymph node
[2] = cited from earlier work
[3] = macroscopic guidance of diagnostic procedures

Row | SMILES | side effects for the patients [2, 3] | further results
1 | CN(C)c1ccc2nc3ccc(=[N+](C)C)cc-3sc2c1 [MB, Methylene blue] | very limited side effects | time to macroscopically visible diffusion of dye to the lymph node ([1]; male, Wistar, rat, in vivo): 5 min
2 | CC1(C)C(/C=C/C=C/C=C/C=C2\N(CCCCS(=O)(=O)O)c3ccc4ccccc4c3C2(C)C)=[N+](CCCCS(=O)(=O)[O-])c2ccc3ccccc3c21 [ICG, Indocyanine green] | very limited side effects | –
3 | Cc1cc2nc3ccc(N(C)C)cc3[s+]c2cc1N.[Cl-] [TB, Toluidine Blue] | very limited side effects | time to macroscopically visible diffusion of dye to the lymph node ([1]; sub-cutaneous injection, 100 μL into footpad): 5 min
4 | CCN(CC)c1ccc(C(=C2C=CC(=[N+](CC)CC)C=C2)c2cc(O)c(S(=O)(=O)[O-])cc2S(=O)(=O)[O-])cc1.[Na+] [PB, sodium patent blue V] | – | time to macroscopically visible diffusion of dye to the lymph node ([1]; rat, in vivo): 5 min; side effects for the patients ([2]; human, in vivo): very limited side effects
5 | Cc1cc(O)c2c(=O)c3c(O)cc(O)c4c5c(O)cc(O)c6c(=O)c7c(O)cc(C)c8c1c2c(c34)c(c78)c65 [hypericin, Hypericin] | very limited side effects | –
